Results on 5 molecules are retold here after PMC3510508, “Rbg1–Tma46 dimer structure reveals new functional domains and their role in polysome recruitment” (Nucleic Acids Research, 2012).

The target of data set [1] is T1, Rbg1fl–Tma46_205–345 (Saccharomyces cerevisiae, UniProt P39729).
T1 construct: gene RBG1; 6His-tagged full-length Rbg1 (N-terminal tag) co-expressed in E. coli with Tma46 residues 205-345; heterodimer; with Translation machinery-associated protein 46
T1 sequence (P39729 1-369): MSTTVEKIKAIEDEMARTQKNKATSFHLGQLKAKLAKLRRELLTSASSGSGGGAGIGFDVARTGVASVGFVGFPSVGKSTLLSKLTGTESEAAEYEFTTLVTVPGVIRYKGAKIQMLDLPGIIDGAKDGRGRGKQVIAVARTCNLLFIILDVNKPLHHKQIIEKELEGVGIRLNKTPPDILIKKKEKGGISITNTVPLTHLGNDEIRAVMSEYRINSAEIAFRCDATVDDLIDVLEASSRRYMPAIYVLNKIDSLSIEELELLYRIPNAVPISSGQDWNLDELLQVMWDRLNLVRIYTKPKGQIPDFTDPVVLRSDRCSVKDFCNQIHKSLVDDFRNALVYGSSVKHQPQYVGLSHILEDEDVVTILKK
T1 sequence (Q12000 205-345 partner): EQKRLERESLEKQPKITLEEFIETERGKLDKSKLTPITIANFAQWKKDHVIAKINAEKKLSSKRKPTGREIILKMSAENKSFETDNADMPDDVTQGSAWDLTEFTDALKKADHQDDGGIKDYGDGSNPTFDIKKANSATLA
Kind of data set: thermal shift assay (Sypro Orange). It counts as binding. To be noted: 150 mM NaCl, 20 mM Tris pH 7.5, 2 mM DTT, ~0.05 mM protein.

Data set [2] deals with human Drg1 full length (human) (UniProt Q9Y295).
Another data set addresses T2, Drg1fl–Lerepo4_220–396 (Homo sapiens, UniProt Q9Y295).
T2 construct: gene DRG1; recombinant full-length Drg1 with C-terminal Lerepo4 fragment; with Zinc finger CCCH domain-containing protein 15
T2 sequence (Q9Y295 2-367): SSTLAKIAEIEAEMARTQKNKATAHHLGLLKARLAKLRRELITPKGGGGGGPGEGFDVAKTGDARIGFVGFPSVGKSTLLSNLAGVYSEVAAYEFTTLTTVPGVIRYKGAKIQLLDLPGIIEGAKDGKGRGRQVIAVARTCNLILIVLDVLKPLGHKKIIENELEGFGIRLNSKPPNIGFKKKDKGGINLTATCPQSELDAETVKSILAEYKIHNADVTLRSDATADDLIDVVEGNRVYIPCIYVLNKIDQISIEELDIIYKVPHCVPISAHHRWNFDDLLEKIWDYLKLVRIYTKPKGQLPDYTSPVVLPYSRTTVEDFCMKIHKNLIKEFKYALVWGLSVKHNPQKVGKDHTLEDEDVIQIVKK
T2 sequence (Q8WU90 220-396 partner): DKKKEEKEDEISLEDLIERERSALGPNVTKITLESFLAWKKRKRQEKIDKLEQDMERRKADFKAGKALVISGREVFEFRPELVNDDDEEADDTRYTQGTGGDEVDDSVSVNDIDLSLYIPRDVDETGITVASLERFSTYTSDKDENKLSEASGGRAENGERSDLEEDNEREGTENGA
Kind of data set: malachite green phosphate release. It counts as biochemical. To be noted: 100 mM KCl, 50 mM Tris pH 7.5, 5 mM MgCl2, 37°C, 1 h, 20 μM protein. The source says: malachite green phosphate release on Drg1fl–Lerepo4_220–396

The target of data set [3] is T3, Rbg1fl–Tma46_205–345 (Saccharomyces cerevisiae, UniProt P39729).
T3 construct: gene RBG1; 6His-tagged full-length Rbg1 (N-terminal tag) co-expressed in E. coli with Tma46 residues 205-345; heterodimer; with Translation machinery-associated protein 46
T3 sequence (P39729 1-369): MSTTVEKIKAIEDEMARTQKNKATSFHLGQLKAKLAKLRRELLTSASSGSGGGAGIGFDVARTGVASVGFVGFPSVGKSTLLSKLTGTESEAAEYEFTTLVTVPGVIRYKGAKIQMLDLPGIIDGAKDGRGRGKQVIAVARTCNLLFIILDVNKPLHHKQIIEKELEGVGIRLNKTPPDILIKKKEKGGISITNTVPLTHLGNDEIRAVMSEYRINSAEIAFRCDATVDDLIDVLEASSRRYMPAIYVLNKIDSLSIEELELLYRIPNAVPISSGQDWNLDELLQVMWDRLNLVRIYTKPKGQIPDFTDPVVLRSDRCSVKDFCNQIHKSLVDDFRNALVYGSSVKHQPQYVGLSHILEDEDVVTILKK
T3 sequence (Q12000 205-345 I241A/F246A partner): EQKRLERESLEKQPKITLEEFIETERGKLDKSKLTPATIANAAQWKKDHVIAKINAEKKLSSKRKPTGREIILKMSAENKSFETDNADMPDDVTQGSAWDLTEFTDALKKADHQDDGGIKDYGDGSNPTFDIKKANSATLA
Kind of data set: malachite green phosphate release. It counts as biochemical. Particulars: 100 mM KCl, 50 mM Tris pH 7.5, 5 mM MgCl2, 37°C, 1 h, 20 μM protein. The source says: (§1) malachite green phosphate release on Rbg1fl–Tma46_205–345

The target of data set [4] is T4, Rbg1fl–Tma46_205–345 (Saccharomyces cerevisiae, UniProt P39729).
T4 construct: gene RBG1; 6His-tagged full-length Rbg1 (N-terminal tag) co-expressed in E. coli with Tma46 residues 205-345; heterodimer; with Translation machinery-associated protein 46
T4 sequence (P39729 1-369): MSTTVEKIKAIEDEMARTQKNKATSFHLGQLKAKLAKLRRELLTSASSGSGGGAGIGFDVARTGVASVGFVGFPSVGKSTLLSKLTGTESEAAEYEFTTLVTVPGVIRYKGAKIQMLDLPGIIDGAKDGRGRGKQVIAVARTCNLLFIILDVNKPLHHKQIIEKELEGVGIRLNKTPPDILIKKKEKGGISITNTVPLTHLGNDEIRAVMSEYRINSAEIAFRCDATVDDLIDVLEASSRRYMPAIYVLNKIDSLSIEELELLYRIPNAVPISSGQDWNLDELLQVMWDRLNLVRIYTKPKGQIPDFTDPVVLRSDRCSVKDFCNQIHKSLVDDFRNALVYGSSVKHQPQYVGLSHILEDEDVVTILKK
T4 sequence (Q12000 205-345 W249A/K250E partner): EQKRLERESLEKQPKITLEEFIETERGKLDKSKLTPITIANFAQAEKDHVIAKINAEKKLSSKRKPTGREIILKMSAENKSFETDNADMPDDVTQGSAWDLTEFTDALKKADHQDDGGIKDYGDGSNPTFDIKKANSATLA
Kind of data set: malachite green phosphate release. It counts as biochemical. To be noted: 100 mM KCl, 50 mM Tris pH 7.5, 5 mM MgCl2, 37°C, 1 h, 20 μM protein.
Description: as §1
This is another data set of the same source.

The target of data set [5] is T5, Rbg1fl–Tma46_205–345 (Saccharomyces cerevisiae, UniProt P39729).
T5 construct: gene RBG1; 6His-tagged full-length Rbg1 (N-terminal tag) co-expressed in E. coli with Tma46 residues 205-345; heterodimer; with Translation machinery-associated protein 46
T5 sequence (P39729 1-369): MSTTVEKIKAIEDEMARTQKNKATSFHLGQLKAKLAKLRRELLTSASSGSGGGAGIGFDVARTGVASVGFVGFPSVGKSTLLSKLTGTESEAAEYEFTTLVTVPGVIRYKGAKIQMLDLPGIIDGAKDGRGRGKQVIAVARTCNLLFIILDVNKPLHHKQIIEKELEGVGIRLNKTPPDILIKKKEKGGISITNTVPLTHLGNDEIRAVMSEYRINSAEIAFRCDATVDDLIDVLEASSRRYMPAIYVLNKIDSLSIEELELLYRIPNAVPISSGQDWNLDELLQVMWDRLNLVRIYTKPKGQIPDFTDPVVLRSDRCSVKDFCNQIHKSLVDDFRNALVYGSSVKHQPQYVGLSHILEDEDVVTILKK
T5 sequence (Q12000 205-345 I241A partner): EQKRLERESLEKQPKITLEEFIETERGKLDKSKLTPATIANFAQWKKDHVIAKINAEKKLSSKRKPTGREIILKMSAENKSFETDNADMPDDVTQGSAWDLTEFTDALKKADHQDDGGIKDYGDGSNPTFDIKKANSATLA
Kind of data set: malachite green phosphate release. It counts as biochemical. To be noted: 100 mM KCl, 50 mM Tris pH 7.5, 5 mM MgCl2, 37°C, 1 h, 20 μM protein.
Description: as §1
The source holds these as a separate data set.

Substrate in data set [6]: Nc1nc2c(ncn2[C@@H]2O[C@H](COP(=O)(O)OP(=O)(O)OP(=O)(O)O)[C@@H](O)[C@H]2O)c(=O)[nH]1
Kind of data set: malachite green phosphate release. To be noted: 100 mM KCl, 50 mM Tris pH 7.5, 5 mM MgCl2, 37°C, 1 h, 20 μM protein. It counts as biochemical, Saccharomyces cerevisiae. The source says:
malachite green phosphate release on Rbg1_1–294–Tma46_205–345 (ΔTGS)

Take `Nc1nc2c(ncn2[C@@H]2O[C@H](COP(=O)(O)OP(=O)(O)OP(O)(O)=S)[C@@H](O)[C@H]2O)c(=O)[nH]1` [GTPγS]: the “increase in melting temperature” value at Rbg1fl–Tma46_205–345 [1] (0.5 mM GTPγS in methods (0.2 mM also stated in Figure 4 legend)) was “increased melting temperature in the presence of the GDP, GTP or non-hydrolysable GTPγS”.

In data set [2], “Lerepo4_(220–396) (from UniProt Q8WU90 220-396) (domain or fragment)” had a GTP hydrolysis (Malachite green), Vmax of the complex; free Drg1 showed significantly reduced activity (nmol min^−1 mg^−1) of 0.115 and a GTP hydrolysis (Malachite green), kcat of the complex of 0.000123 s⁻¹.

For the molecule `Nc1nc2c(ncn2[C@@H]2O[C@H](COP(=O)(O)OP(=O)(O)O)[C@@H](O)[C@H]2O)c(=O)[nH]1` [GDP], the “increase in melting temperature” value on Rbg1fl–Tma46_205–345 [1] (0.2 mM GDP) is listed as “increased melting temperature in the presence of the GDP, GTP or non-hydrolysable GTPγS”.

For the molecule `Nc1nc2c(ncn2[C@@H]2O[C@H](COP(=O)(O)OP(=O)(O)OP(=O)(O)O)[C@@H](O)[C@H]2O)c(=O)[nH]1` [GTP], the Km on Drg1fl–Lerepo4_220–396 worked out at 319 ± 35 µM; on Rbg1fl–Tma46_205–345 [3] it was 429 ± 94.7 µM; at Rbg1fl–Tma46_205–345 [4], 426 ± 52.6 µM; on Rbg1fl–Tma46_205–345 [5] it was 186 ± 34.5 µM. Besides, the “increase in melting temperature” value on Rbg1fl–Tma46_205–345 [1] (0.2 mM GTP) is “increased melting temperature in the presence of the GDP, GTP or non-hydrolysable GTPγS”.

B1: Rbg1_1–294–Tma46_205–345 (ΔTGS) (Saccharomyces cerevisiae S288C) (protein)
chain: MSTTVEKIKAIEDEMARTQKNKATSFHLGQLKAKLAKLRRELLTSASSGSGGGAGIGFDVARTGVASVGFVGFPSVGKSTLLSKLTGTESEAAEYEFTTLVTVPGVIRYKGAKIQMLDLPGIIDGAKDGRGRGKQVIAVARTCNLLFIILDVNKPLHHKQIIEKELEGVGIRLNKTPPDILIKKKEKGGISITNTVPLTHLGNDEIRAVMSEYRINSAEIAFRCDATVDDLIDVLEASSRRYMPAIYVLNKIDSLSIEELELLYRIPNAVPISSGQDWNLDELLQVMWDRLNLV
notes: 6His-tagged Rbg1 lacking TGS domain (residues 1-294), co-expressed in E. coli with Tma46 205-345; with Translation machinery-associated protein 46
On to B1, for which, in data set [6], the Km was 426.3 ± 165 µM, the Vmax came to 1.66e-05 µmol/min/mg and the kcat amounted to 1.33e-05 s⁻¹.

In general, Km refers to the concentration of substrate that gives half-maximal velocity. In general, Vmax refers to the rate approached at saturating substrate. The kcat is the number of substrate molecules converted per active site and unit of time at saturation.
